Source: ChEMBL document CHEMBL5634161, “Discovery of benzamide-based PI3K/HDAC dual inhibitors with marked pro-apoptosis activity in lymphoma cells” (Eur J Med Chem, 2023)
Blank lines part the entries; values can stand above or below the compound they belong to. The source made the active and inactive calls. No cut-off for these calls is given here.

What was measured:
Histone deacetylase 2 = Histone deacetylase 2 (Homo sapiens, UniProt Q92769); test: Inhibition of HDAC2 (unknown origin) using Boc-Lys(acetyl)-AMC as substrate preincubated for 1 hrs followed by substrate addition and measured after 2 hrs by spectrophotometer based fluorometric assay
[1] = biological target: Phosphatidylinositol 4,5-bisphosphate 3-kinase catalytic subunit alpha isoform (Homo sapiens, UniProt P42336); test: Inhibition of PI3Kalpha (unknown origin) using PIP2 as substrate incubated for 1 hrs in presence of ATP by ADP-Glo kinase assay
Histone deacetylase 3 = Histone deacetylase 3 (Homo sapiens, UniProt O15379); test: Inhibition of HDAC3 (unknown origin) using Boc-Lys(acetyl)-AMC as substrate preincubated for 1 hrs followed by substrate addition and measured after 2 hrs by spectrophotometer based fluorometric assay
Histone deacetylase 1 = Histone deacetylase 1 (Homo sapiens, UniProt Q13547); test: Inhibition of HDAC1 (unknown origin) using Boc-Lys(acetyl)-AMC as substrate preincubated for 1 hrs followed by substrate addition and measured after 2 hrs by spectrophotometer based fluorometric assay
JeKo-1 [2] = test: Induction of apoptosis in human JeKo-1 cells assessed as late apoptotic cells at 1 uM incubated for 48 hrs by Annexin-V/FITC and PI staining based flow cytometric analysis (reference value: 3.66%); type: functional
JeKo-1 [3] = test: Induction of apoptosis in human JeKo-1 cells assessed as viable cells at 0.25 uM incubated for 48 hrs by Annexin-V/FITC and PI staining based flow cytometric analysis (reference value: 94.1%); type: functional; conditions: read-out: Activity
JeKo-1 [4] = test: Induction of apoptosis in human JeKo-1 cells assessed as necrotic cells at 0.25 uM incubated for 48 hrs by Annexin-V/FITC and PI staining based flow cytometric analysis (reference value: 1.05%); type: functional
JeKo-1 [5] = test: Induction of apoptosis in human JeKo-1 cells assessed as viable cells at 1 uM incubated for 48 hrs by Annexin-V/FITC and PI staining based flow cytometric analysis (reference value: 94.1%); type: functional; conditions: read-out: Activity
MDA-MB-231 = test: Antiproliferative activity against human MDA-MB-231 cells incubated for 48 hrs by resazurin dye based fluorescence micro plate reader analysis; type: functional, cell-based; conditions: MDA-MB-231, 48 h
JeKo-1 [6] = test: Potentiation of CI994-induced apoptosis in human JeKo-1 cells; type: functional, cell-based
JeKo-1 [7] = test: Induction of apoptosis in human JeKo-1 cells assessed as necrotic cells at 0.5 uM incubated for 48 hrs by Annexin-V/FITC and PI staining based flow cytometric analysis (reference value: 1.05%); type: functional
HL-60 = test: Antiproliferative activity against human HL-60 cells incubated for 48 hrs by resazurin dye based fluorescence micro plate reader analysis; type: functional, cell-based; conditions: HL-60, 48 h
JeKo-1 [8] = test: Induction of apoptosis in human JeKo-1 cells assessed as viable cells at 0.5 uM incubated for 48 hrs by Annexin-V/FITC and PI staining based flow cytometric analysis (reference value: 94.1%); type: functional; conditions: read-out: Activity
[9] = Inhibition of PI3K/AKT/mTOR signaling in human JeKo-1 cells assessed as decrease in AKT phosphorylation at S473 residue at 0.25 uM incubated for 24 hrs by Western blot analysis; type: cell-based
JeKo-1 [10] = test: Induction of apoptosis in human JeKo-1 cells assessed as necrotic cells at 1 uM incubated for 48 hrs by Annexin-V/FITC and PI staining based flow cytometric analysis (reference value: 1.05%); type: functional
JeKo-1 [11] = test: Induction of apoptosis in human JeKo-1 cells assessed as late apoptotic cells at 0.5 uM incubated for 48 hrs by Annexin-V/FITC and PI staining based flow cytometric analysis (reference value: 3.66%); type: functional
[12] = Cytotoxicity against human HL7702 cells incubated for 48 hrs by resazurin dye based fluorescence micro plate reader analysis; type: toxicity, cell-based; conditions: HL7702 (L02) cells
MM1.S = test: Antiproliferative activity against human MM1.S cells incubated for 48 hrs by resazurin dye based fluorescence micro plate reader analysis; type: functional, cell-based
JeKo-1 [13] = test: Effect on total AKT protein level in human JeKo-1 cells at 0.25 uM incubated for 24 hrs by Western blot analysis; type: functional, cell-based
JeKo-1 [14] = test: Induction of apoptosis in human JeKo-1 cells assessed as late apoptotic cells at 0.25 uM incubated for 48 hrs by Annexin-V/FITC and PI staining based flow cytometric analysis (reference value: 3.66%); type: functional
JeKo-1 [15] = test: Antiproliferative activity against human JeKo-1 cells incubated for 48 hrs by resazurin dye based fluorescence micro plate reader analysis; type: functional, cell-based; conditions: JeKo-1, 48 h

Sequence of Phosphatidylinositol 4,5-bisphosphate 3-kinase catalytic subunit alpha isoform (P42336 whole entry, canonical isoform): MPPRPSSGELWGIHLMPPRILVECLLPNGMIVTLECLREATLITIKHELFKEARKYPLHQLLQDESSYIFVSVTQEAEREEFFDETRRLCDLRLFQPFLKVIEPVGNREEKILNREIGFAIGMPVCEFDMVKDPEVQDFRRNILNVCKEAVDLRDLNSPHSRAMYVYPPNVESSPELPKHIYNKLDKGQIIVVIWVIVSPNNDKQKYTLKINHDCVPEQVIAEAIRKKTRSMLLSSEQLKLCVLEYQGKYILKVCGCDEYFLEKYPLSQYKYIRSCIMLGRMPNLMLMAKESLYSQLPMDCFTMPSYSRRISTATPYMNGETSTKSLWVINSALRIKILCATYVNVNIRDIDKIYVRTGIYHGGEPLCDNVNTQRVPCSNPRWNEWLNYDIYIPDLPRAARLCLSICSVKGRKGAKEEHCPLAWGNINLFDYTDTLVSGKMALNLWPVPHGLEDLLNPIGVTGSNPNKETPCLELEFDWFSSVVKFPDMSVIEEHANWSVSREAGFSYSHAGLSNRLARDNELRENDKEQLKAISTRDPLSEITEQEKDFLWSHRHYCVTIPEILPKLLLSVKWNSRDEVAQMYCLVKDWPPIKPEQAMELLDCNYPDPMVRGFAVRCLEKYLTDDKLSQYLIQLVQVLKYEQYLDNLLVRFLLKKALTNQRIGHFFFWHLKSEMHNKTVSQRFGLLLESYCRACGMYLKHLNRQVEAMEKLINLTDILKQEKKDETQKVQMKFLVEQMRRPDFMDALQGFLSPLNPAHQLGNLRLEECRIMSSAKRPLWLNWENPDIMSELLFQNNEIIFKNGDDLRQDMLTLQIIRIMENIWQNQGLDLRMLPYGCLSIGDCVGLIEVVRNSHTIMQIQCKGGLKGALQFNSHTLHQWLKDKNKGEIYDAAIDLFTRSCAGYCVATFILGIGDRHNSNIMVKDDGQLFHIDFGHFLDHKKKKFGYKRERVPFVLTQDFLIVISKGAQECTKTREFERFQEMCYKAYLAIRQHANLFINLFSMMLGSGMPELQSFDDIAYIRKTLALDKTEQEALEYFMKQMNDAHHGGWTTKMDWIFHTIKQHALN
Sequence of Histone deacetylase 2 (Q92769 whole entry, canonical isoform): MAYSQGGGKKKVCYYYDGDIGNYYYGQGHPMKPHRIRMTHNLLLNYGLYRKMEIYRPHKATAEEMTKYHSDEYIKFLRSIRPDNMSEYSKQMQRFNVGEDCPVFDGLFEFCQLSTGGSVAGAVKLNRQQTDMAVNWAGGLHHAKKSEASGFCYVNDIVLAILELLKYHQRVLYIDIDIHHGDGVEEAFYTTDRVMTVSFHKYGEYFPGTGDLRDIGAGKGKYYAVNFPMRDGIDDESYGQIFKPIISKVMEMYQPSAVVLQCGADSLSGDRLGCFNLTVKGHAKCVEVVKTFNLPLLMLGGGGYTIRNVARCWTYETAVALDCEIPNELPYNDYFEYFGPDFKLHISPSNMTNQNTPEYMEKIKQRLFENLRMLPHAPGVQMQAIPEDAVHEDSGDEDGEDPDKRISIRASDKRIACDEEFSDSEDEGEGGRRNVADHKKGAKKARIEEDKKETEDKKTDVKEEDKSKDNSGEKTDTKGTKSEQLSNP
Sequence of Histone deacetylase 3 (O15379 whole entry): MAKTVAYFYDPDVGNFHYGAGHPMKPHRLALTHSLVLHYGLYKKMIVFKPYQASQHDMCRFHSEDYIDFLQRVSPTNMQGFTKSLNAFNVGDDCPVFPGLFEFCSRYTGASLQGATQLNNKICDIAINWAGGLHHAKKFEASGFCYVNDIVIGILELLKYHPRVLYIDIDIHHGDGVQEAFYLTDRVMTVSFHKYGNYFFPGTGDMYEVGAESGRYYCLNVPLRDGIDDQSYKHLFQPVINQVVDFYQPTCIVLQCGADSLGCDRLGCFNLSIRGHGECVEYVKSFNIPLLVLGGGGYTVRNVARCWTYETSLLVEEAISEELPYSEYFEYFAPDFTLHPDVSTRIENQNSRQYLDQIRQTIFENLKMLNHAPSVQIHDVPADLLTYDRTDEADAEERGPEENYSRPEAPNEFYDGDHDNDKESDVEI
Sequence of Histone deacetylase 1 (Q13547 whole entry): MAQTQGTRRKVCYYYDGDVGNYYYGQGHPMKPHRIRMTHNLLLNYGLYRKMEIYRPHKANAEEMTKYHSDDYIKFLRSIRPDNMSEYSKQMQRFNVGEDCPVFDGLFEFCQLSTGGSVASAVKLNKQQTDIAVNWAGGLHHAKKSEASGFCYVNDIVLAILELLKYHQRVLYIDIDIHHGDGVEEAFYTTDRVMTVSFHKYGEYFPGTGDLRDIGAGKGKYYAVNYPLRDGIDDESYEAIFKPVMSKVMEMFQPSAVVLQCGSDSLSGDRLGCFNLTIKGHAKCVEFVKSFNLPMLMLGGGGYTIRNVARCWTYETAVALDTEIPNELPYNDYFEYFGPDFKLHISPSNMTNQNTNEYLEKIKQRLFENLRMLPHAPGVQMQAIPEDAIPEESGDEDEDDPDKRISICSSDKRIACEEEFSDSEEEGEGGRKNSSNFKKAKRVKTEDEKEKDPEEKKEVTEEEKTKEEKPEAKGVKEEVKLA

Structure (SMILES): Nc1ccccc1NC(=O)CCCNC(=O)c1ccc(NC(=O)Nc2ccc(-c3nc(N4CCOCC4)nc(N4CCOCC4)n3)cc2)cc1
IC50 (Histone deacetylase 2): > 10000 nM
IC50 [1]: 11.6 nM
IC50 (Histone deacetylase 3): > 10000 nM
IC50 (Histone deacetylase 1): > 10000 nM

Structure (SMILES): Nc1ccccc1NC(=O)CCCCCNC(=O)c1ccc(NC(=O)Nc2ccc(-c3nc(N4CCOCC4)nc(N4CCOCC4)n3)cc2)cc1
IC50 (Histone deacetylase 2): 602 nM
IC50 [1]: 17.3 nM
IC50 (Histone deacetylase 3): 99.2 nM
IC50 (Histone deacetylase 1): 227 nM

Structure (SMILES): Nc1cc(F)ccc1NC(=O)c1ccc(NC(=O)Nc2ccc(-c3nc(N4CCOCC4)nc(N4CCOCC4)n3)cc2)cc1
IC50 (Histone deacetylase 2): > 10000 nM
IC50 [1]: 17 nM
IC50 (Histone deacetylase 3): 499 nM
IC50 (Histone deacetylase 1): > 10000 nM

Structure (SMILES): COc1nc(-c2ccc(NC(=O)Nc3ccc(C(=O)NCCCCCCC(=O)Nc4ccccc4N)cc3)cc2)nc(N2CCOCC2)n1
IC50 (Histone deacetylase 2): 459 nM
IC50 [1]: 88.3 nM
IC50 (Histone deacetylase 3): 24.6 nM
IC50 (Histone deacetylase 1): 336 nM

Structure (SMILES): Nc1ccccc1NC(=O)CCCCCNC(=O)c1ccc(NC(=O)Nc2ccc(-c3nc(OC4COC4)nc(N4CCOCC4)n3)cc2)cc1
IC50 (Histone deacetylase 2): 128 nM
IC50 [1]: 4.5 nM
IC50 (Histone deacetylase 3): 17.7 nM
IC50 (Histone deacetylase 1): 81.5 nM

Now from value to compound, other results behind:

IC50 (Histone deacetylase 2): 490 nM
IC50 [1]: 75.7 nM
IC50 (Histone deacetylase 3): 210 nM
IC50 (Histone deacetylase 1): 345 nM
Structure (SMILES): Nc1ccccc1NC(=O)CCCCCCCNC(=O)c1ccc(NC(=O)Nc2ccc(-c3nc(N4CCOCC4)nc(N4CCOCC4)n3)cc2)cc1

IC50 (Histone deacetylase 2): > 10000 nM
IC50 [1]: 11.2 nM
IC50 (Histone deacetylase 3): 334 nM
IC50 (Histone deacetylase 1): > 10000 nM
Structure (SMILES): COc1nc(-c2ccc(NC(=O)Nc3ccc(C(=O)Nc4ccccc4N)cc3)cc2)nc(N2CCOCC2)n1

IC50 (MDA-MB-231): 4200 nM
IC50 (HL-60): 3100 nM
IC50 [1]: 2.4 nM
IC50 (MM1.S): 3300 nM
Structure (SMILES): CNCCNC(=O)c1ccc(NC(=O)Nc2ccc(-c3nc(OC)nc(N4CCOCC4)n3)cc2)cc1
Activity (JeKo-1 [2]): 8.29%
viability at 0.25 µM (JeKo-1 [3]): 93.9%
Activity (JeKo-1 [4]): 0.73%
viability at 1 µM (JeKo-1 [5]): 91.5%
Activity (JeKo-1 [6]): Active
Activity (JeKo-1 [7]): 0.41%
viability at 0.5 µM (JeKo-1 [8]): 94.8%
inhibition [9]: Active
Activity (JeKo-1 [10]): 0.4%
Activity (JeKo-1 [11]): 3.51%
IC50 at 48 h [12]: > 100000 nM
Activity (JeKo-1 [13]): inactive
Activity (JeKo-1 [14]): 4.5%
IC50 (JeKo-1 [15]): 1100 nM

IC50 (Histone deacetylase 2): > 10000 nM
IC50 [1]: 13.3 nM
IC50 (Histone deacetylase 3): > 10000 nM
IC50 (Histone deacetylase 1): > 10000 nM
Structure (SMILES): Nc1ccccc1NC(=O)CCCCNC(=O)c1ccc(NC(=O)Nc2ccc(-c3nc(N4CCOCC4)nc(N4CCOCC4)n3)cc2)cc1

IC50 (Histone deacetylase 2): 168 nM
IC50 [1]: 9 nM
IC50 (Histone deacetylase 3): 56.1 nM
IC50 (Histone deacetylase 1): 178 nM
Structure (SMILES): Nc1ccccc1NC(=O)CCCCCCNC(=O)c1ccc(NC(=O)Nc2ccc(-c3nc(OC4COC4)nc(N4CCOCC4)n3)cc2)cc1
